MIC and IC50 data for 23 molecules are collected here from ChEMBL document CHEMBL1147922, “Tetrahydroindazole inhibitors of bacterial type II topoisomerases. Part 2: SAR development and potency against multidrug-resistant strains” (Bioorg Med Chem Lett, 2007).

Assay [1] relates to Staphylococcus aureus. Kind of assay: Antibacterial activity against ciprofloxacin resistant methicillin resistant Staphylococcus aureus OC4222. It counts as functional.
For assay [2], the system named is Staphylococcus aureus. In words: Antibacterial activity against ciprofloxacin resistant methicillin resistant Staphylococcus aureus OC5273. It is filed as functional.
Assay [3] is described as follows: Inhibition of bacterial DNA gyrase.
Assay [4] in a line: Inhibition of bacterial DNA topoisomerase 4.
For another assay, the system named is Escherichia coli. Kind of assay: Antibacterial activity against Escherichia coli KL16. It counts as functional.
The test system of assay [5] is Staphylococcus aureus. Kind of assay: Antibacterial activity against Staphylococcus aureus ATCC 13709. It is filed as functional.
For a further assay, the system named is Streptococcus pneumoniae. In words: Antibacterial activity against Streptococcus pneumoniae ATCC 49619. It is filed as functional.
The test system of assay [6] is Staphylococcus aureus. In words: Antibacterial activity against quinolone susceptible methicillin resistant Staphylococcus aureus OC2878. It counts as functional.
The test system of assay [7] is Staphylococcus aureus. Kind of assay: Antibacterial activity against ciprofloxacin resistant methicillin resistant Staphylococcus aureus OC3946. It is filed as functional.
In assay [8] the test system is Staphylococcus aureus. In words: Antibacterial activity against ciprofloxacin resistant methicillin resistant Staphylococcus aureus OC4159. It is filed as functional.

Broadly, the MIC is the least concentration at which growth counts as inhibited. High values mean weaker potency, low ones greater potency. Usually IC50 stands for the midpoint of a concentration-inhibition curve.

Molecules are shown by their SMILES. Converted amounts (≈) assume the structure as drawn.

Regarding `COc1ccc2nccc(-n3cc4c(n3)CCC(NC(=O)c3cc5c(cc3F)SCC(=O)N5)C4)c2c1` (stereo not drawn), the MIC against Staphylococcus aureus [1] came out at 0.031 µg/mL (≈ 0.0616 µM); against Staphylococcus aureus [2], 0.062 µg/mL (≈ 0.123 µM); in the assay on Escherichia coli, 4 µg/mL (≈ 7.94 µM); against Staphylococcus aureus [5] it was 0.03 µg/mL (≈ 0.0596 µM); in the assay on Streptococcus pneumoniae, 1 µg/mL (≈ 1.99 µM); against Staphylococcus aureus [6], 0.062 µg/mL (≈ 0.123 µM). Further, the minimal inhibitory concentration (MIC) against Staphylococcus aureus [7] came out at 0.015 µg/mL (≈ 0.0298 µM); against Staphylococcus aureus [8] it was 0.031 µg/mL (≈ 0.0616 µM). For the same molecule, the concentration for half-maximal inhibition (IC50) was 8 µg/mL (≈ 15.9 µM) in assay [3] and 0.25 µg/mL (≈ 0.496 µM) in assay [4].
Consider `COc1ccc2nccc(-n3cc4c(n3)CCC(NC(=O)c3cc5ccccc5[nH]3)C4)c2c1` (stereo not drawn), for which the IC50 is greater than 16 µg/mL in [3] and 1 µg/mL (≈ 2.29 µM) in assay [4]. Further, the minimum inhibitory concentration (MIC) against Escherichia coli is greater than 128 µg/mL; with Staphylococcus aureus [5] it was 1 µg/mL (≈ 2.29 µM); against Streptococcus pneumoniae, 8 µg/mL (≈ 18.3 µM).
Regarding `CCn1cc(C(=O)O)c(=O)c2cc(F)c(N3CCNCC3)cc21` [NORFLOXACIN], the MIC in the assay with Staphylococcus aureus [1] was greater than 128 µg/mL; against Staphylococcus aureus [2], greater than 128 µg/mL; against Staphylococcus aureus [5] it was 1 µg/mL (≈ 3.13 µM); against Staphylococcus aureus [6] it was 1 µg/mL (≈ 3.13 µM); against Staphylococcus aureus [7] it was 128 µg/mL (≈ 401 µM); against Staphylococcus aureus [8], greater than 128 µg/mL.
As for `O=C1CSc2ccc(C(=O)NC3CCc4nn(-c5cccc6ccccc56)cc4C3)cc2N1` (stereo not drawn), the IC50 in [3] was 2 µg/mL (≈ 4.4 µM); in assay [4], 0.125 µg/mL (≈ 0.275 µM). The minimal inhibitory concentration (MIC) with Escherichia coli is greater than 128 µg/mL; against Staphylococcus aureus [5], 0.5 µg/mL (≈ 1.1 µM); with Streptococcus pneumoniae, 8 µg/mL (≈ 17.6 µM).
In the same order, the values of `COc1ccc2nccc(-n3cc4c(n3)CCC(NCc3ccc5c(c3)OCCCO5)C4)c2n1` (stereo not drawn) are 4 µg/mL (≈ 8.74 µM), 1 µg/mL (≈ 2.19 µM), greater than 128 µg/mL, 1 µg/mL (≈ 2.19 µM) and 4 µg/mL (≈ 8.74 µM).
Take `COc1ccc2nccc(-n3cc4c(n3)CCC(NC(=O)c3cc5c(cc3Br)SCC(=O)N5)C4)c2n1` (stereo not drawn): the IC50 in assay [3] and in [4] was 0.25 µg/mL (≈ 0.442 µM) each time. Also, the figures for the minimum inhibitory concentration (MIC) with Escherichia coli, against Staphylococcus aureus [5] and against Streptococcus pneumoniae were 2 µg/mL (≈ 3.54 µM), 0.125 µg/mL (≈ 0.221 µM) and 2 µg/mL (≈ 3.54 µM), respectively.
For `COc1ccc2nccc(-n3cc4c(n3)CCC(NC/C=C/c3ccccc3)C4)c2n1` (stereo not drawn), the MIC in the assay with Staphylococcus aureus [1] was 0.062 µg/mL (≈ 0.151 µM); against Staphylococcus aureus [2], 0.125 µg/mL (≈ 0.304 µM); with Staphylococcus aureus [5], 0.06 µg/mL (≈ 0.146 µM); with Streptococcus pneumoniae, less than 0.125 µg/mL; against Staphylococcus aureus [6], 0.125 µg/mL (≈ 0.304 µM); with Staphylococcus aureus [7] it was 0.062 µg/mL (≈ 0.151 µM). Besides, it took 0.062 µg/mL (≈ 0.151 µM) to inhibit growth with Staphylococcus aureus [8] (MIC). For the same molecule, the half-inhibitory concentration (IC50) in assay [3] was 0.12 µg/mL (≈ 0.292 µM); in assay [4], less than 0.015 µg/mL.
Turning to `COc1ccc2nccc(-n3cc4c(n3)CCC(NC/C=C/c3ccccc3)C4)c2c1` (stereo not drawn), the MIC with Staphylococcus aureus [1] was 0.25 µg/mL (≈ 0.609 µM); in the assay with Staphylococcus aureus [2] it was 1 µg/mL (≈ 2.44 µM); against Staphylococcus aureus [5], 0.5 µg/mL (≈ 1.22 µM); in the assay on Streptococcus pneumoniae, 1 µg/mL (≈ 2.44 µM); against Staphylococcus aureus [6], 0.5 µg/mL (≈ 1.22 µM); in the assay with Staphylococcus aureus [7], 0.5 µg/mL (≈ 1.22 µM). For the same molecule, the MIC against Staphylococcus aureus [8] stood at 0.5 µg/mL (≈ 1.22 µM). The same molecule came in with a half-inhibitory concentration (IC50) in [3] of 4 µg/mL (≈ 9.74 µM).
In the case of `COc1ccc2nccc(-n3cc4c(n3)CCC(NC(=O)c3cc5c(cc3C(F)(F)F)SCC(=O)N5)C4)c2c1` (stereo not drawn), the half-maximal inhibitory concentration (IC50) in assay [3] was found to be 1 µg/mL (≈ 1.81 µM); in [4] it was 0.25 µg/mL (≈ 0.452 µM). In addition, the minimum inhibitory concentration (MIC) against Escherichia coli worked out at 8 µg/mL (≈ 14.5 µM); in the assay with Staphylococcus aureus [5] it was 0.125 µg/mL (≈ 0.226 µM); against Streptococcus pneumoniae, 8 µg/mL (≈ 14.5 µM).
For the molecule `COc1ccc2nccc(-n3cc4c(n3)CCC(NC(=O)c3ccc5c(c3)NC(=O)CO5)C4)c2c1` (stereo not drawn), the half-inhibitory concentration (IC50) in assay [3] is 0.25 µg/mL (≈ 0.532 µM); in assay [4], 0.5 µg/mL (≈ 1.06 µM). In addition, the MIC against Escherichia coli came out at 2 µg/mL (≈ 4.26 µM); with Staphylococcus aureus [5], 0.125 µg/mL (≈ 0.266 µM); in the assay on Streptococcus pneumoniae, 4 µg/mL (≈ 8.52 µM).
On to `COc1ccc2nccc(-n3cc4c(n3)CCC(NC(=O)c3ccc5c(c3)OCCO5)C4)c2n1` (stereo not drawn), for which the results for the IC50 in assay [3] and in [4] were greater than 32 µg/mL and greater than 1 µg/mL, respectively. For the same molecule, the MIC is greater than 128 µg/mL in the assay on Escherichia coli, 0.5 µg/mL (≈ 1.09 µM) against Staphylococcus aureus [5] and 8 µg/mL (≈ 17.5 µM) in the assay with Streptococcus pneumoniae.
In the same order, the values of `COc1ccc2nccc(-n3cc4c(n3)CCC(NCc3ccc5c(c3)OCCO5)C4)c2n1` (stereo not drawn) are 1 µg/mL (≈ 2.25 µM), 0.25 µg/mL (≈ 0.564 µM), 32 µg/mL (≈ 72.2 µM), 0.03 µg/mL (≈ 0.0676 µM) and 0.5 µg/mL (≈ 1.13 µM).
Take `COc1ccc2nccc(-n3cc4c(n3)CCC(NCc3ccc5c(c3)NCCS5)C4)c2c1` (stereo not drawn): the concentration for half-maximal inhibition (IC50) came out at 0.5 µg/mL (≈ 1.09 µM) in assay [3] and 0.0625 µg/mL (≈ 0.137 µM) in assay [4]. The MIC turned out to be 8 µg/mL (≈ 17.5 µM) in the assay on Escherichia coli, 0.5 µg/mL (≈ 1.09 µM) against Staphylococcus aureus [5] and 0.5 µg/mL (≈ 1.09 µM) against Streptococcus pneumoniae.
`O=C1CSc2ccc(C(=O)NC3CCc4nn(-c5ccnc6cc(Cl)ccc56)cc4C3)cc2N1` (stereo not drawn): the IC50 is 16 µg/mL (≈ 32.7 µM) in assay [3] and greater than 0.5 µg/mL in assay [4]. The MIC was greater than 128 µg/mL in the assay with Escherichia coli, 2 µg/mL (≈ 4.08 µM) with Staphylococcus aureus [5] and greater than 128 µg/mL in the assay on Streptococcus pneumoniae.
In the case of `C[C@@H]1CN(c2c(F)c(N)c3c(=O)c(C(=O)O)cn(C4CC4)c3c2F)C[C@H](C)N1` [SPARFLOXACIN], the minimum inhibitory concentration (MIC) in the assay on Staphylococcus aureus [1] worked out at 8 µg/mL (≈ 20.4 µM); in the assay with Staphylococcus aureus [2] it was 16 µg/mL (≈ 40.8 µM); against Staphylococcus aureus [5], 0.062 µg/mL (≈ 0.158 µM); against Staphylococcus aureus [6], 0.062 µg/mL (≈ 0.158 µM); against Staphylococcus aureus [7], 4 µg/mL (≈ 10.2 µM); with Staphylococcus aureus [8], 16 µg/mL (≈ 40.8 µM).
As for `COc1ccc2nccc(-n3cc4c(n3)CCC(NCc3ccc5c(c3)OCO5)C4)c2n1` (stereo not drawn), the 50% inhibitory concentration (IC50) in [3] and in assay [4] was 0.25 µg/mL (≈ 0.582 µM) in each case. The minimum inhibitory concentration (MIC) in the assay on Escherichia coli turned out to be 32 µg/mL (≈ 74.5 µM); with Staphylococcus aureus [5] it was 0.5 µg/mL (≈ 1.16 µM); with Streptococcus pneumoniae, 2 µg/mL (≈ 4.66 µM).
For `COc1ccc2nccc(-n3cc4c(n3)CCC(NCc3ccc5c(c3)NCCS5)C4)c2n1` (stereo not drawn), the concentration for half-maximal inhibition (IC50) in [3] stood at 0.5 µg/mL (≈ 1.09 µM); in assay [4] it was 0.03 µg/mL (≈ 0.0654 µM). The MIC against Escherichia coli is 8 µg/mL (≈ 17.4 µM); in the assay with Staphylococcus aureus [5] it was less than 0.125 µg/mL; in the assay on Streptococcus pneumoniae, 0.25 µg/mL (≈ 0.545 µM).
For `COc1ccc2nccc(-n3cc4c(n3)CCC(NC(=O)c3cc5c(cc3Br)SCC(=O)N5)C4)c2c1` (stereo not drawn), in that order: 0.5 µg/mL (≈ 0.886 µM), 0.125 µg/mL (≈ 0.221 µM), 2 µg/mL (≈ 3.54 µM), 0.125 µg/mL (≈ 0.221 µM) and 2 µg/mL (≈ 3.54 µM).
For `COc1ccc2nccc(-n3cc4c(n3)CCC(NCc3ccc5c(n3)NC(=O)CO5)C4)c2n1` (stereo not drawn), in that order: less than 0.125 µg/mL, 0.016 µg/mL (≈ 0.035 µM), 2 µg/mL (≈ 4.37 µM), 0.25 µg/mL (≈ 0.546 µM) and 2 µg/mL (≈ 4.37 µM).
For the molecule `COc1ccc2nccc(-n3cc4c(n3)CCC(NC(=O)/C=C/c3ccccc3)C4)c2c1` (stereo not drawn), the IC50 in [3] was found to be 16 µg/mL (≈ 37.7 µM); in [4], 0.5 µg/mL (≈ 1.18 µM). The MIC came to 1 µg/mL (≈ 2.36 µM) in the assay with Staphylococcus aureus [5] and 4 µg/mL (≈ 9.42 µM) in the assay with Streptococcus pneumoniae.
With `COc1ccc2nccc(-n3cc4c(n3)CCC(NC(=O)c3ccc5c(c3)NC(=O)CO5)C4)c2n1` (stereo not drawn), the IC50 in assay [3] came out at 1 µg/mL (≈ 2.13 µM); in [4], 0.25 µg/mL (≈ 0.531 µM). For the same molecule, the MIC amounted to 4 µg/mL (≈ 8.5 µM) against Escherichia coli, 0.125 µg/mL (≈ 0.266 µM) against Staphylococcus aureus [5] and 8 µg/mL (≈ 17 µM) against Streptococcus pneumoniae.
In the same order, the values of `Cc1cc(-n2cc3c(n2)CCC(NC(=O)c2ccc4c(c2)NC(=O)CS4)C3)c2cc(F)ccc2n1` (stereo not drawn) are 4 µg/mL (≈ 8.2 µM), 0.5 µg/mL (≈ 1.03 µM), greater than 128 µg/mL, 8 µg/mL (≈ 16.4 µM) and greater than 128 µg/mL.
With `COc1ccc2nccc(-n3cc4c(n3)CCC(NCc3ccc5c(n3)NC(=O)CO5)C4)c2c1` (stereo not drawn), the values for the IC50 in assay [3] and in assay [4] were 0.06 µg/mL (≈ 0.131 µM) and 0.016 µg/mL (≈ 0.035 µM), respectively. Also, the MIC came to 2 µg/mL (≈ 4.38 µM) in the assay with Escherichia coli, 1 µg/mL (≈ 2.19 µM) against Staphylococcus aureus [5] and 2 µg/mL (≈ 4.38 µM) in the assay with Streptococcus pneumoniae.
